Source: BigSolDB 2.1

Cc1cc(C)c(C(=O)P(=O)(C(=O)c2c(C)cc(C)cc2C)c2ccccc2)c(C)c1
Details | solubility (mole fraction)
in acetonitrile, 295.4 K | 0.00463
in acetonitrile, 303.2 K | 0.00793
in acetonitrile, 308 K | 0.0108
in acetonitrile, 313.3 K | 0.0154
in acetonitrile, 318.1 K | 0.0225
in acetonitrile, 323.2 K | 0.03
in acetonitrile, 328.1 K | 0.0421
in acetonitrile, 333.2 K | 0.0611
in acetonitrile, 338.1 K | 0.0863
in cyclohexane, 295.4 K | 0.0016
in cyclohexane, 303.2 K | 0.00239
in cyclohexane, 308.3 K | 0.00323
in cyclohexane, 313.1 K | 0.00414
in cyclohexane, 318.2 K | 0.00542
in cyclohexane, 323.4 K | 0.00732
in cyclohexane, 328.1 K | 0.00966
in cyclohexane, 333.2 K | 0.0123
in cyclohexane, 338.1 K | 0.017
in cyclohexane, 343.3 K | 0.0217
in ethanol, 295.4 K | 0.00372
in ethanol, 303.2 K | 0.00627
in ethanol, 307.2 K | 0.00827
in ethanol, 313.1 K | 0.0119
in ethanol, 318 K | 0.0161
in ethanol, 324.1 K | 0.0239
in ethanol, 328.3 K | 0.0326
in ethanol, 333.2 K | 0.0471
in ethyl acetate, 295.4 K | 0.0178
in ethyl acetate, 303.2 K | 0.0259
in ethyl acetate, 307.9 K | 0.0326
in ethyl acetate, 313.2 K | 0.0406
in ethyl acetate, 318.2 K | 0.0508
in ethyl acetate, 323.3 K | 0.064
in ethyl acetate, 328.2 K | 0.0842
in ethyl acetate, 333 K | 0.103
in ethyl acetate, 338.1 K | 0.127
in ethyl acetate, 343.2 K | 0.16
in isopropanol, 295.4 K | 0.00278
in isopropanol, 305.2 K | 0.0055
in isopropanol, 308.2 K | 0.0068
in isopropanol, 313.3 K | 0.0098
in isopropanol, 318 K | 0.0137
in isopropanol, 324.1 K | 0.0205
in isopropanol, 328.1 K | 0.0281
in isopropanol, 333.2 K | 0.04
in isopropanol, 338.3 K | 0.0556
in isopropanol, 343.2 K | 0.0793
in methanol, 295.4 K | 0.00235
in methanol, 303.2 K | 0.00434
in methanol, 308.3 K | 0.00629
in methanol, 313.1 K | 0.00909
in methanol, 318.2 K | 0.0134
in methanol, 323.4 K | 0.0195
in methanol, 328 K | 0.0283
in methanol, 333.2 K | 0.0427
in n-hexane, 295.4 K | 0.00151
in n-hexane, 303.2 K | 0.00218
in n-hexane, 308.1 K | 0.00277
in n-hexane, 313.2 K | 0.00323
in n-hexane, 318.1 K | 0.00389
in n-hexane, 322.9 K | 0.00442
in n-hexane, 328.1 K | 0.00525
in n-hexane, 333.2 K | 0.00635
